Each block holds one molecule with its values, some of them ahead of it. Peptide text beside a SMILES is read from it. * marks the point of attachment. Cbz = O=C(OCc1ccccc1)*
Assays:
Purified cathepsin L = target: T1, Purified cathepsin L (Homo sapiens, UniProt P07711); test: Cathepsin L activity, fluorogenic substrate (CV-Cathepsin L Detection Kit); type: biochemical; conditions: inhibitor 10 μM, 200 ng cathepsin L; positive control 4e+5 AU, negative control 0.75e+5 AU
T1 construct: purchased Biomol, Plymouth Meeting, Pa
Procedure: Cathepsin L activity was measured using a commercially available kit according to the manufacturer's procedure (CV-Cathepsin L Detection Kit; Biomol, Plymouth Meeting, Pa.). Purified cathepsin L (Biomol, Plymouth Meeting, Pa.) (200 ng) was incubated with each inhibitor (10 μM) in a 96 well plate for 15 min at room temperature in 100 μl of reaction buffer (100 mM sodium acetate pH 5, 1 mM EDTA (ethylenediaminetetraacetic acid), and 4 mM dithiothreitol). The protease inhibitors tested were: lactacystin and inhibitors of cathepsin L, B, S, and K. 100 μl of a fluorogenic substrate (CV-Cathepsin L Detection Kit; Biomol, Plymouth Meeting, Pa.) were added and incubated for an additional 30 min at room temperature. Fluorescence was measured in a plate reader (Victor Multilabel Counter, Perkin Elmer) at 380 nm excitation and […] emission wavelengths.

[1] = system: Drug-sensitive cells Saos2; test: Prevention of development of doxorubicin resistance, viable cell count, Saos2; type: cell-based; conditions: Dox 10^−9 M + inhibitor 10 μM
From the text: (§1) As discussed above, inhibition of cathepsin L enhanced drug response only in drug-resistant cells. Another aspect of the present invention was to determine whether treatment of drug-sensitive cancer cells with this drug combination prevents them from becoming drug resistant. […] After 4 days in culture, the surviving cells were subjected to the same treatment for an additional four days. The cells were then subjected to two subsequent treatments for four days with 2.5×10^−8 M doxorubicin with or without the cathepsin L inhibitor at 10 μM. The surviving cells were then treated with doxorubicin 5×10^−8 M doxorubicin with or without cathepsin L (10 μM) for four days. At the end of each incubation period, viable cells were counted.

[2] = system: Drug-sensitive cells SKN-SH; test: Prevention of development of doxorubicin resistance, viable cell count, SKN-SH; type: cell-based, human; conditions: Dox 10^−9 M + inhibitor 10 μM
From the text: as §1

[3] = system: SKN-SH doxorubicin-resistant cells; test: Viable cell count of SKN-SH doxorubicin-resistant cells with other chemotherapeutic agents; conditions: Homo sapiens, SK-N-SH, 72 h; for viability at 100 µM: read-out: number of viable cells, chemotherapeutic agent alone at 10^−4 M; for viability at 10 µM: read-out: number of viable cells, chemotherapeutic agent alone at 10^−5M; for viability at 1 µM: read-out: number of viable cells, chemotherapeutic agent alone at 10^−6 M; for viability at 0.1 µM: read-out: number of viable cells, chemotherapeutic agent alone at 10^−7M; for viability at 0.01 µM: read-out: number of viable cells, chemotherapeutic agent alone at 10^−8M
Procedure: SHN-SH cells were prepared in the manner described above. […] Viable cells were counted after 72 hours of incubation with the melphalan, etoposide, mitoxantrone, cyclophosphamide, and tamoxifen.

[4] = system: Doxorubicin resistant human neuroblastoma cells (SKN-SH/R); test: Tumor growth of SKN-SH/R cells injected into nude mice; type: in vivo
Procedure: Doxorubicin resistant human neuroblastoma cells (SKN-SH/R) cells grown into 75 cm^2 flasks were harvested by trypsinization and centrifuged to remove trypsin. The pellet was then reconstituted in culture medium at 10^7 cell/ml. On day one, 100 μl (10^6 cells) were injected to the right flank of nude mice (5 per group) and after the tumor became palpable at day 11, mice were assigned to four groups: 1) controls (treated with the vehicle DMSO), 2) Dox. 1.5 mg/kg (treated with doxorubicin alone 1.5 mg/Kg), 3) iCL 30 mg/Kg (treated with cathepsin L inhibitor alone at 30 mg/Kg), and 4) Dox 1.5 mg/Kg+iCL 30 mg/Kg (treated with the combination of doxorubicin 1.5 mg/Kg and cathepsin L inhibitor 30 mg/Kg). Intraperetoneal injections were given on day 11, day 14, and day 17.

SKN-SH wild type cells = test: MTT cytotoxicity assay, SKN-SH wild type cells; type: cell-based; conditions: Homo sapiens, SK-N-SH, 96 h, read-out: IC50 of the cytotoxic agent alone
Procedure: (§2) Human neuroblastoma SKN-SH cells (ATCC Cat. No. HTB-11) were cultured in Dulbecco's Modified Eagles Medium (DMEM; Gibco, Grand Island, N.Y.) supplemented with 10% fetal bovine serum (FBS; Sigma-Aldrich, St. Louis, Mo.) at 37° C. in a 95% Air/5% CO2 atmosphere. Resistant cells to doxorubicin (SKN-SH/R) were selected by stepwise exposure to drug concentrations ranging from 10^−9 M through 10^−6 M over a time period of three months. The resulting cell line was subjected to treatment with the doxorubicin alone or in combination with: proteosome inhibitor (Lactacystin), cathepsin B inhibitor (L-3-trans-(Propylcarbamoyl)oxirane-2-carbonyl]-L-isoleucyl-L praline), cathespin L inhibitor (Z-Phe-Tyr(t-Bu)-diazomethylketone), cathespin K inhibitor (1,3-Bis(N-CBZ-Leu-NH)-2-propanonel,3 -Di(N-carbonbenzoyloxy-L-leucyl)amino acetone), or cathespin S inhibitor (Z-Phe-Leu-COCHO.H2O), (all available from Calbiochem-Novabiochem, San Diego) at 10 μM each to determine whether they affect cell response to doxorubicin.
(§3) Cytotoxic activity of doxorubicin and cysteine protease inhibitors were quantitatively determined by a calorimetric assay utilizing 3-(4,5-dimethyl-2-thiazolyl) 2,5-diphenyl tetrazolium bromide (MTT; Sigma-Aldrich, St. Louis, Mo.). […] The optical density of this solution was measured at 570 nm and the percentage of viable cells estimated by comparison with untreated control cells. […]

SKN-SH/R cells = test: MTT cytotoxicity assay, doxorubicin-resistant neuroblastoma cells; type: cell-based; conditions: Homo sapiens, SK-N-SH, 96 h, read-out: IC50 (concentration at which 50% of cells remained viable) of the cytotoxic agent alone, SKN-SH/R cells, agent alone (control cells), 96 hours, MTT
Procedure: as §2, §3

[5] = system: drug resistant osteosarcoma cells (Saos2-R); test: Cell count of drug resistant osteosarcoma cells after siRNA or inhibitor and doxorubicin; type: cell-based
From the text: (§4) The human cathepsin L siRNA was designed in our laboratory by studying a cDNA sequence of the human cathepsin L gene (SEQ ID NO: 2). We selected a segment defined by nucleotide numbers 91-111, sent that sequence to a contract laboratory (Dharmacon, Lafayette, Colo.), which synthesized an siRNA molecule based on the aforementioned segment. The segment of the human cathepsin L cDNA we used was: […] (91-111) (SEQ ID NO: 2). On the day before transfection, 3×10^5 drug resistant osteosarcoma cells (Saos2-R) were seeded in 6-well plates and grown in 2.5 ml of DMEM supplemented with 10% FBS. After 24 hours in culture, 25 μl of 20 μM stock solution of siRNA duplexes were transfected into cells with GeneSilencer™ SiRNA Transfection Reagent Kit (Gene Therapy Systems, Inc., San Diego, Calif.). Briefly, adherent cells were transfected in 6 well plates. Cells were about 70% confluent. In one tube, 5 μl of GeneSilencer™ was mixed with 25 μl of serum free medium. In a second tube, 25 μl of siRNA diluent was mixed with […] of serum free medium and 20 μl of siRNA (100 nM). After incubation of tubes 1 and 2, at room temperature for 5 min, they were mixed together into tube 3 and incubated for an additional 5 min. The content of tube 3 was added to the cells in the 6 well plates and incubated for 2 days before the addition of the drug. After 48 hours of incubation, doxorubicin (10^−5 M) was added and maintained in culture for an additional 48 hours before analysis. The cells were counted and protein lysates were used to detect cathepsin L expression by Western blot as described above.

cathepsin L = test: Cathepsin L expression by Western blot in siRNA-transfected Saos2-R cells; type: cell-based, human
From the text: as §4, with “The content of tube 3 was added to the cells in the 6 well plates and incubated for 2 days before the addition of the drug. After 48 hours of incubation, doxorubicin (10^−5 M) was added and maintained in culture for an additional 48 hours before analysis.” left out

[6] = cathepsin inhibitor 30 mg/Kg + doxorubicin 1.5 mg/Kg

T1 sequence (P07711 114-333, species assumed): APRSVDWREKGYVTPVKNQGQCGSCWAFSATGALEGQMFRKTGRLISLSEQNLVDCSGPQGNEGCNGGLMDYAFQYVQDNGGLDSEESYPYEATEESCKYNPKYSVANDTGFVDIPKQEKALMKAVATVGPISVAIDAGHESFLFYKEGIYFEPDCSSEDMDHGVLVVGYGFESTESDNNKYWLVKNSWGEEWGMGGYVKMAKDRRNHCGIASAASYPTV

cathepsin L activity (arbitrary units) in presence of inhibitor (Purified cathepsin L): 3.5e+5 AU
Molecule: CCCNC(=O)[C@H]1O[C@@H]1C(=O)N[C@H](C(=O)N1CCC[C@H]1C(=O)O)[C@@H](C)CC (relative stereo) [cathepsin B inhibitor]

Molecule: CC(C)C[C@H](NC(=O)OCc1ccccc1)C(=O)NCC(=O)CNC(=O)[C@H](CC(C)C)NC(=O)OCc1ccccc1 [cathepsin K inhibitor, 1,3-Bis(N-CBZ-Leu-NH)-2-propanonel,3 -Di(N-carbonbenzoyloxy-L-leucyl)amino acetone]
cathepsin L activity (arbitrary units) in presence of inhibitor (Purified cathepsin L): 1e+5 AU

Molecule: CC[C@H](C)[C@H](NS(=O)(=O)c1ccc2ccccc2c1)C(=O)N[C@H](C=O)Cc1c[nH]c2ccccc12 [cathepsin L inhibitor (Napsule-Ile-Tryp), Napsule-Ile-Tryp]
viable cells, doxorubicin plus cathepsin L inhibition, first concentration [1]: about 90%
viable cells, doxorubicin plus cathepsin L inhibitor, first concentration [2]: about 80%

cathepsin L activity (arbitrary units) in presence of inhibitor (Purified cathepsin L): 3e+5 AU
Molecule: CC(C)CC(NC(=O)C(Cc1ccccc1)NC(=O)OCc1ccccc1)C(=O)C=O.O (stereo not drawn) [cathepsin S inhibitor, Z-Phe-Leu-COCHO.H2O]

Molecule: O=P1(N(CCCl)CCCl)NCCCO1 (stereo not shown) [cyclophosphamide]
viability at 100 µM [3]: ~70%
viability at 10 µM [3]: ~70%
viability at 1 µM [3]: ~80%
viability at 0.1 µM [3]: ~95%

Molecule: COc1cc([C@@H]2c3cc4c(cc3[C@@H](O[C@@H]3O[C@@H]5CO[C@@H](C)O[C@H]5[C@H](O)[C@H]3O)[C@H]3COC(=O)[C@H]23)OCO4)cc(OC)c1O [etoposide]
viability at 100 µM [3]: ~10%
viability at 10 µM [3]: ~70%
viability at 1 µM [3]: ~90%
viability at 0.1 µM [3]: ~95%

Molecule: O=C[C@H](Cc1ccc(O)cc1)NC(=O)[C@H](Cc1ccccc1)NC(=O)OCc1ccccc1 [iCL, Z-Phe-Tyr-aldehyde] (Cbz-Phe-Tyr-aldehyde)
tumor volume reduction at day 27 greater than doxorubicin alone, co-administered with doxorubicin [4, 6]: about 94%
tumor volume reduction at day 27 greater than the control, co-administered with doxorubicin [4, 6]: about 95%
tumor volume reduction at day 27 greater than the control, inhibitor alone ([4]; cathepsin inhibitor alone 30 mg/Kg): about 60%
tumor volume reduction at day 27 greater than doxorubicin, inhibitor alone ([4]; cathepsin inhibitor alone 30 mg/Kg vs doxorubicin 1.5 mg/Kg): about 50%
average tumor volume on day 27, combination with doxorubicin ([4]; nude mice, i.p. on day 11, 14, 17, Dox 1.5 mg/Kg+iCL 30 mg/Kg): approximately 100 mm^3
average tumor volume on day 27, single agent ([4]; nude mice, i.p. on day 11, 14, 17, doxorubicin alone 1.5 mg/Kg or iCL alone 30 mg/Kg): approximately 800 mm^3

cathepsin L activity (arbitrary units) in presence of inhibitor (Purified cathepsin L): 4.25e+5 AU
Molecule: CC(=O)N[C@@H](CSC(=O)[C@]1([C@@H](O)C(C)C)NC(=O)[C@H](C)[C@@H]1O)C(=O)O [lactacystin, Lactacystin]

Molecule: N[C@@H](Cc1ccc(N(CCCl)CCCl)cc1)C(=O)O [melphalan]
viability at 1 µM [3]: ~0%
viability at 0.1 µM [3]: ~30%
viability at 0.01 µM [3]: ~60%

Molecule: O=C1c2c(O)ccc(O)c2C(=O)c2c(NCCNCCO)ccc(NCCNCCO)c21 [mitoxantrone]
viability at 1 µM [3]: ~5%
viability at 0.1 µM [3]: ~10%
viability at 0.01 µM [3]: ~40%

Molecule: CC/C(=C(\c1ccccc1)c1ccc(OCCN(C)C)cc1)c1ccccc1 [tamoxifen]
viability at 10 µM [3]: ~0%
viability at 1 µM [3]: ~60%
viability at 0.1 µM [3]: ~60%
viability at 0.01 µM [3]: ~75%

Molecule: CC[C@]1(O)C[C@@H]2CN(CCc3c([nH]c4ccccc34)[C@@](C(=O)OC)(c3cc4c(cc3OC)N(C)[C@H]3[C@@](O)(C(=O)OC)[C@H](OC(C)=O)[C@]5(CC)C=CCN6CC[C@]43[C@@H]65)C2)C1 [vinblastine]
IC50 (SKN-SH wild type cells): ~100 nM
IC50 (SKN-SH/R cells): ~5620 nM

Molecule: siRNA: human cathepsin L siRNA based on nucleotides 91-111 of the cathepsin L cDNA (SEQ ID NO: 2), synthesized by Dharmacon (UUCACCUUCCGCUACGUGUUG; listed as RNA, chemistry not given here; listed as Homo sapiens)
inhibition of cell proliferation, combination of siRNA and doxorubicin ([5]; doxorubicin 10^−5 M): ~90%
cell number, in combination with doxorubicin ([5]; doxorubicin 10^−5 M for 48 hours, untreated 1.6e+6 AU): 1.5e+5 AU
cell number, siRNA transfection alone ([5]; untreated 1.6e+6 AU): 8.0e+5 AU
cathepsin L expression (Western blot), siRNA alone (cathepsin L; Saos2-R cells transfected with siRNA): completely diminished
cathepsin L expression (Western blot), siRNA and doxorubicin (cathepsin L; Saos2-R cells transfected with siRNA and treated with doxorubicin 10^−5 M): completely diminished
